Measurements from PubChem BioAssay AID248 (DTP/NCI, 2004).
Inconclusive results and toxic doses are left out. Rule as the data show it: active = T/C of 150% or more; inactive = T/C below 125%. Square brackets hold non-standard residues; d marks the D form. Peptide text beside a SMILES is read from it. ξ: configuration not given here. ξV = CC(C)C(N)C(=O)O

System: L1210 leukemia ip in BDF1 mice, survival T/C
Test: NCI In Vivo Anticancer Drug Screen. Data for tumor model L1210 Leukemia (intraperitoneal) in B6D2F1 (BDF1) mice
Conditions: endpoint: mean survival time, higher = longer survival
Procedure, shortened: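 Transplantable tumor model; survival measured in treated vs vehicle control mice. Value = treated/control.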

[1] = dose: 100.0 mg/kg/injection, schedule: Q04DX003 (ip), vehicle: saline
[2] = dose: 200.0 mg/kg/injection, schedule: Q04DX003 (ip), vehicle: saline
[3] = dose: 400.0 mg/kg/injection, schedule: Q04DX003 (ip), vehicle: saline
[4] = dose: 100.0 mg/kg/injection, schedule: Q01DX009 (ip), vehicle: saline
[5] = dose: 200.0 mg/kg/injection, schedule: Q01DX009 (ip), vehicle: saline
[6] = dose: 400.0 mg/kg/injection, schedule: Q01DX009 (ip), vehicle: saline
[7] = dose: 100.0 mg/kg/injection, schedule: Q01DX001 (ip), vehicle: saline with Tween-80
[8] = dose: 100.0 mg/kg/injection, schedule: Q01DX009 (ip), vehicle: saline with Tween-80
[9] = dose: 100.0 mg/kg/injection, schedule: Q01DX009 (ip), vehicle: Klucel (hydroxypropylcellulose) (HPC)
[10] = dose: 200.0 mg/kg/injection, schedule: Q01DX009 (ip), vehicle: Klucel (hydroxypropylcellulose) (HPC)
[11] = dose: 400.0 mg/kg/injection, schedule: Q01DX009 (ip), vehicle: Klucel (hydroxypropylcellulose) (HPC)
[12] = dose: 200.0 mg/kg/injection, schedule: Q01DX009 (ip), vehicle: saline with Tween-80
[13] = dose: 400.0 mg/kg/injection, schedule: Q01DX009 (ip), vehicle: saline with Tween-80
[14] = dose: 100.0 mg/kg/injection, schedule: Q04DX002 (ip), vehicle: Klucel (hydroxypropylcellulose) (HPC)
[15] = dose: 200.0 mg/kg/injection, schedule: Q04DX002 (ip), vehicle: Klucel (hydroxypropylcellulose) (HPC)
[16] = dose: 100.0 mg/kg/injection, schedule: Q04DX003 (ip), vehicle: saline with Tween-80
[17] = dose: 200.0 mg/kg/injection, schedule: Q04DX003 (ip), vehicle: saline with Tween-80
[18] = dose: 100.0 mg/kg/injection, schedule: Q01DX001 (ip), vehicle: saline
[19] = dose: 200.0 mg/kg/injection, schedule: Q01DX001 (ip), vehicle: saline
[20] = dose: 400.0 mg/kg/injection, schedule: Q01DX001 (ip), vehicle: saline
[21] = dose: 400.0 mg/kg/injection, schedule: Q04DX003 (ip), vehicle: saline with Tween-80

Measured: T/C

O=S(=O)(C/C(=N\O)c1ccccc1)C/C(=N/O)c1ccccc1
inactive: [1] 104 % of control | [2] 98 % of control | [3] 100 % of control

CC(C)C(N)C(=O)NCC(=O)NCC(=O)O (stereo not drawn) (H-[ξV]-Gly-Gly-OH)
inactive: [4] 98 % of control | [1] 102 % of control | [5] 96 % of control | [2] 94 % of control | [6] 98 % of control | [3] 100 % of control

CCc1cc(C(C)(C)C)c(O)c(C(C)(C)C)c1
inactive: [7] 95 % of control | dose: 200.0 mg/kg/injection, schedule: Q01DX001 (ip), vehicle: saline with Tween-80 102 % of control | dose: 400.0 mg/kg/injection, schedule: Q01DX001 (ip), vehicle: saline with Tween-80 95 % of control

CC1C=NNC1=O (configuration not stated)
inactive: [8] 124 % of control | [4] 115 % of control | [1] 104 % of control | [2] 112 % of control | dose: 300.0 mg/kg/injection, schedule: Q#B X027 (ip), vehicle: saline 89 % of control | [3] 109 % of control

CCCCCCCCCCCCCCCCC(O)CO (configuration not stated)
inactive: [9] 96 % of control | [10] 102 % of control | [11] 96 % of control

CCCCCCCCN(CCCCCCCC)NC(C)=O
inactive: dose: 50.0 mg/kg/injection, schedule: Q01DX001 (ip), vehicle: other 96 % of control | dose: 100.0 mg/kg/injection, schedule: Q01DX001 (ip), vehicle: other 104 % of control | dose: 200.0 mg/kg/injection, schedule: Q01DX001 (ip), vehicle: other 96 % of control | dose: 400.0 mg/kg/injection, schedule: Q01DX001 (ip), vehicle: other 93 % of control

O=C(CC(C#Cc1ccccc1)c1ccccc1)c1ccccc1 (configuration not stated)
inactive: dose: 75.0 mg/kg/injection, schedule: Q04DX003 (ip), vehicle: Klucel (hydroxypropylcellulose) (HPC) 97 % of control | dose: 150.0 mg/kg/injection, schedule: Q04DX003 (ip), vehicle: Klucel (hydroxypropylcellulose) (HPC) 101 % of control | dose: 300.0 mg/kg/injection, schedule: Q04DX003 (ip), vehicle: Klucel (hydroxypropylcellulose) (HPC) 94 % of control

O=C1c2ccccc2C(=O)c2c(O)ccc(O)c21
inactive: dose: 50.0 mg/kg/injection, schedule: Q01DX009 (ip), vehicle: saline 94 % of control | [8] 106 % of control | [4] 102 % of control | [12] 101 % of control | [5] 102 % of control | [13] 101 % of control

Cc1ccc(C(=O)CCc2ccccc2)cc1
inactive: dose: 100.0 mg/kg/injection, schedule: Q04DX003 (ip), vehicle: other 92 % of control | dose: 200.0 mg/kg/injection, schedule: Q04DX003 (ip), vehicle: other 91 % of control | dose: 400.0 mg/kg/injection, schedule: Q04DX003 (ip), vehicle: other 94 % of control

COC(=O)C1=C(O)C(=O)N(c2ccccc2)C1
inactive: [7] 88 % of control

N#CC(c1ccccc1)C(C/C(=N\O)c1ccccc1)c1ccccc1 (configuration not stated)
inactive: [14] 111 % of control | [15] 100 % of control | dose: 400.0 mg/kg/injection, schedule: Q04DX002 (ip), vehicle: Klucel (hydroxypropylcellulose) (HPC) 96 % of control

N/C(=N\O)c1ccncc1
inactive: [4] 94 % of control | [5] 96 % of control

Cc1ccc(C)c(CNC(=O)C2CCCCC2C(=O)O)c1 (configuration not stated)
inactive: [8] 101 % of control | [12] 112 % of control | [13] 109 % of control

COC(=O)C1OCOC2C(CO)OCOC12 (configuration not stated)
inactive: dose: 100.0 mg/kg/injection, schedule: Q04DX002 (ip), vehicle: saline 91 % of control | [16] 91 % of control | dose: 200.0 mg/kg/injection, schedule: Q04DX002 (ip), vehicle: saline 117 % of control | [17] 86 % of control | dose: 400.0 mg/kg/injection, schedule: Q04DX002 (ip), vehicle: saline 106 % of control

[N-]=[N+]=NCc1cnccn1
inactive: dose: 12.5 mg/kg/injection, schedule: Q01DX009 (ip), vehicle: saline 103 % of control | dose: 12.5 mg/kg/injection, schedule: Q04DX003 (ip), vehicle: saline 98 % of control | dose: 25.0 mg/kg/injection, schedule: Q01DX009 (ip), vehicle: saline 101 % of control | dose: 25.0 mg/kg/injection, schedule: Q04DX003 (ip), vehicle: saline 98 % of control | dose: 50.0 mg/kg/injection, schedule: Q04DX003 (ip), vehicle: saline 98 % of control

N=c1ccn(O)cc1[N+](=O)[O-]
inactive: [18] 108 % of control | [19] 120 % of control | [20] 114 % of control

C[Si](C)(C)c1cccc(-c2ccccc2)c1
inactive: dose: 25.6 mg/kg/injection, schedule: Q04DX002 (ip), vehicle: saline with Tween-80 93 % of control | dose: 64.0 mg/kg/injection, schedule: Q04DX002 (ip), vehicle: saline with Tween-80 104 % of control | [16] 101 % of control | dose: 160.0 mg/kg/injection, schedule: Q04DX002 (ip), vehicle: saline with Tween-80 97 % of control | [17] 92 % of control | dose: 400.0 mg/kg/injection, schedule: Q04DX002 (ip), vehicle: saline with Tween-80 97 % of control | [21] 101 % of control

[N-]=[N+]=NC1=C(c2ccccc2)C(=O)C(N=[N+]=[N-])=C(c2ccccc2)C1=O
inactive: [18] 88 % of control | [19] 95 % of control | [20] 90 % of control

C/C=C(/C)c1ccccc1
inactive: dose: 100.0 mg/kg/injection, schedule: Q01DX001 (ip), vehicle: carboxymethylcellulose (CMC) 95 % of control | dose: 200.0 mg/kg/injection, schedule: Q01DX001 (ip), vehicle: carboxymethylcellulose (CMC) 95 % of control | dose: 400.0 mg/kg/injection, schedule: Q01DX001 (ip), vehicle: carboxymethylcellulose (CMC) 95 % of control

N#C/C(=C\c1cccc2ccccc12)c1ccccc1
inactive: dose: 25.0 mg/kg/injection, schedule: Q04DX002 (ip), vehicle: Klucel (hydroxypropylcellulose) (HPC) 92 % of control | dose: 50.0 mg/kg/injection, schedule: Q04DX002 (ip), vehicle: Klucel (hydroxypropylcellulose) (HPC) 98 % of control | [9] 95 % of control | [14] 95 % of control | [10] 93 % of control | [11] 100 % of control

C/C(=C\c1cc(-c2ccccc2)cc(=O)o1)c1ccccc1
inactive: [8] 89 % of control | [16] 104 % of control | [12] 97 % of control | [17] 95 % of control | [13] 89 % of control | [21] 103 % of control

O=C1C=C(NCCCCC2CCCCC2)c2ccccc2C1=O
inactive: [18] 95 % of control | [19] 97 % of control | [20] 91 % of control

COC1/C=C/OC2(C)Oc3c(C)c(O)c4c(O)c(c(/C=N/N5C(C)CN(Cc6ccc(C)cc6)CC5C)c(O)c4c3C2=O)NC(=O)C(C)=C/C=C/C(C)C(O)C(C)C(O)C(C)C(OC(C)=O)C1C (configuration not stated)
inactive: [8] 94 % of control

CN(CC(=O)O)Cc1ccccc1
inactive: [4] 93 % of control | [1] 104 % of control | [5] 88 % of control | [2] 109 % of control | [6] 93 % of control | [3] 102 % of control

Cc1nc(N)[nH]c(=O)c1CCc1ccccc1
inactive: dose: 100.0 mg/kg/injection, schedule: Q04DX003 (ip), vehicle: Klucel (hydroxypropylcellulose) (HPC) 100 % of control | dose: 200.0 mg/kg/injection, schedule: Q04DX003 (ip), vehicle: Klucel (hydroxypropylcellulose) (HPC) 94 % of control | dose: 400.0 mg/kg/injection, schedule: Q04DX003 (ip), vehicle: Klucel (hydroxypropylcellulose) (HPC) 100 % of control

N#C/C(=C/c1ccc(Cl)cc1)C(=O)O
inactive: dose: 62.5 mg/kg/injection, schedule: Q01DX009 (ip), vehicle: Klucel (hydroxypropylcellulose) (HPC) 115 % of control | [14] 109 % of control | dose: 125.0 mg/kg/injection, schedule: Q01DX009 (ip), vehicle: Klucel (hydroxypropylcellulose) (HPC) 86 % of control | [15] 98 % of control | dose: 250.0 mg/kg/injection, schedule: Q01DX009 (ip), vehicle: Klucel (hydroxypropylcellulose) (HPC) 86 % of control
